The structures appear in SMILES notation.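 Cells were grown in 96-well plates and exposed to each compound for 48 hours at five concentrations; endpoints were interpolated linearly between bracketing concentrations, or set to the highest concentration if not reached. TGI: concentration producing complete growth inhibition.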

Among the test systems are EKVX NSCLC; BT-549 breast; OVCAR-4 ovarian; MDA-MB-435; HL-60(TB) leukemia; K-562 leukemia; MALME-3M melanoma; SF-268 CNS; NCI-H23 lung; CAKI-1 renal.
Holding throughout (assay): DTP human tumour cell line panel, 48 h

Consider `O=C(C(=C(I)I)c1ccccc1)c1ccccc1`, for which the concentration for total growth inhibition (TGI) was above 100 µM in the experiment on EKVX NSCLC; above 100 µM with BT-549 breast; above 100 µM in the experiment with OVCAR-4 ovarian; above 100 µM with MDA-MB-435; 52.3 µM in the experiment on HL-60(TB) leukemia; 21.4 µM in the experiment with K-562 leukemia. In addition, the TGI in the experiment with MALME-3M melanoma is 46.8 µM; with SF-268 CNS it was above 100 µM; in the experiment on NCI-H23 lung, 88.8 µM; in the experiment on CAKI-1 renal it was above 100 µM.
With `CN(C)/N=N/c1nc2c(c(=O)n(C)c(=O)n2C)n1CC1CO1` (stereo unspecified), the TGI is 57.9 µM with EKVX NSCLC; 52.7 µM with BT-549 breast; 29.4 µM with OVCAR-4 ovarian; 35.6 µM in the experiment with MDA-MB-435; above 100 µM with HL-60(TB) leukemia; 60.2 µM with K-562 leukemia. The total growth inhibition concentration (TGI) worked out at 25.1 µM in the experiment with MALME-3M melanoma, 33.6 µM with SF-268 CNS, 25.1 µM with NCI-H23 lung and 38.9 µM with CAKI-1 renal.
Turning to `CC1=NN2C(=N)/C(=C/c3ccc(F)cc3)C(=O)N=C2S1`, the total growth inhibition concentration (TGI) in the experiment with EKVX NSCLC, with BT-549 breast, with OVCAR-4 ovarian, with MDA-MB-435, in the experiment on HL-60(TB) leukemia and in the experiment with K-562 leukemia was above 100 µM in each case. Further, the concentration for total growth inhibition (TGI) in the experiment on MALME-3M melanoma, in the experiment with SF-268 CNS, with NCI-H23 lung and in the experiment on CAKI-1 renal was above 100 µM in each case.
As for `Cc1c(C(=O)NNc2ccccc2)n2c(=S)[nH]nc2c2ccccc12`, the TGI in the experiment on EKVX NSCLC, in the experiment on BT-549 breast, with OVCAR-4 ovarian, in the experiment on MDA-MB-435, in the experiment with HL-60(TB) leukemia and in the experiment on K-562 leukemia was above 100 µM in each case. Moreover, the concentration for total growth inhibition (TGI) with SF-268 CNS, in the experiment with NCI-H23 lung and in the experiment on CAKI-1 renal was above 100 µM each time.
In the case of `N#Cc1c(-c2ccc([N+](=O)[O-])cc2)c(C#N)c(=O)n(NS(=O)(=O)c2ccccc2)c1O`, the TGI with EKVX NSCLC, in the experiment with BT-549 breast, in the experiment on OVCAR-4 ovarian, in the experiment on MDA-MB-435, with HL-60(TB) leukemia and in the experiment on K-562 leukemia was above 100 µM throughout. The TGI in the experiment with MALME-3M melanoma and in the experiment on CAKI-1 renal was above 100 µM in each case.
For `CCn1ncc2c(=O)n3ncn(-c4ccc(Br)cc4)c3nc21`, the concentration for total growth inhibition (TGI) in the experiment with EKVX NSCLC, in the experiment on BT-549 breast, in the experiment on OVCAR-4 ovarian, in the experiment with MDA-MB-435, in the experiment with HL-60(TB) leukemia and in the experiment with K-562 leukemia was above 100 µM throughout. The TGI in the experiment on MALME-3M melanoma, in the experiment on SF-268 CNS and in the experiment with NCI-H23 lung was above 100 µM each time.
As to `COc1ccc(C2C=C(c3ccc(C)cc3)N(c3ccc(OC)cc3[N+](=O)[O-])C3C(=O)OC(=O)C23)c(OC)c1` (stereo unspecified), the TGI in the experiment with EKVX NSCLC, with BT-549 breast, with OVCAR-4 ovarian, with MDA-MB-435, in the experiment with HL-60(TB) leukemia and in the experiment with K-562 leukemia was above 100 µM in each case. In addition, the TGI is 38.5 µM with MALME-3M melanoma, above 100 µM with SF-268 CNS, above 100 µM in the experiment on NCI-H23 lung and above 100 µM with CAKI-1 renal.
Turning to `C=C(C)[C@H]1CC23C(=O)[C@@](C)(C[C@H]2C1(C)C)C(=O)C(C(=O)C(C)C)=C3O`, the TGI with EKVX NSCLC stood at 28.8 µM; in the experiment with BT-549 breast, 37.7 µM; in the experiment with OVCAR-4 ovarian, 34.9 µM; with MDA-MB-435, 31.3 µM; in the experiment on HL-60(TB) leukemia, 41.6 µM; with K-562 leukemia, 49.3 µM. Also, the TGI with MALME-3M melanoma is 28.6 µM; in the experiment on SF-268 CNS it was 50.4 µM; in the experiment with NCI-H23 lung, 43 µM; in the experiment with CAKI-1 renal, 55.3 µM.
For the compound `Cn1c(=O)cc(NNc2ccc(Cl)c(Cl)c2)[nH]c1=O`, the concentration for total growth inhibition (TGI) in the experiment with EKVX NSCLC was 24.2 µM; in the experiment on BT-549 breast it was 29.9 µM; in the experiment on OVCAR-4 ovarian, 28.3 µM; in the experiment with MDA-MB-435, 14.1 µM; in the experiment with HL-60(TB) leukemia, 91 µM; in the experiment on K-562 leukemia, 23.1 µM. Further, the TGI in the experiment on SF-268 CNS worked out at 75.9 µM; in the experiment with NCI-H23 lung it was 90.7 µM; with CAKI-1 renal, 27.3 µM.
On to `CSc1ncc2c(n1)-c1ccccc1OC2NC1CC1` (stereo unspecified), for which the TGI in the experiment with EKVX NSCLC is above 100 µM; with BT-549 breast, above 100 µM; with OVCAR-4 ovarian, above 100 µM; in the experiment with MDA-MB-435 it was above 100 µM; in the experiment on HL-60(TB) leukemia, 73.3 µM; with K-562 leukemia, above 100 µM. The figures for the TGI with SF-268 CNS, in the experiment with NCI-H23 lung and with CAKI-1 renal were above 100 µM, above 100 µM and 86.3 µM, respectively.
With `CCC1([N+](=O)[O-])CN(N=O)C1`, the total growth inhibition concentration (TGI) in the experiment on EKVX NSCLC, in the experiment on BT-549 breast, with OVCAR-4 ovarian, with MDA-MB-435, with HL-60(TB) leukemia and in the experiment on K-562 leukemia was above 100 µM throughout. Also, the TGI with MALME-3M melanoma, in the experiment on SF-268 CNS, in the experiment on NCI-H23 lung and in the experiment with CAKI-1 renal was above 100 µM each time.
On to `CC1(C)OCC(C2OC(C)(C)OC2[C@H]2O[C@@]3(O)[C@H]4[C@H](C=CC[C@@H]42)[C@@H](OCc2ccccc2)[C@H](OCc2ccccc2)[C@H]3OCc2ccccc2)O1` (stereo partly specified), for which the TGI was above 100 µM with EKVX NSCLC; above 100 µM in the experiment on BT-549 breast; above 100 µM with OVCAR-4 ovarian; above 100 µM in the experiment on MDA-MB-435; 42.4 µM with HL-60(TB) leukemia; above 100 µM with K-562 leukemia. Further, the TGI with MALME-3M melanoma, in the experiment with SF-268 CNS, in the experiment on NCI-H23 lung and with CAKI-1 renal was above 100 µM throughout.
For the compound `CSc1ccc(/C=C2\N=C(c3ccccc3)N(c3nc4cc(Cl)c(F)cc4s3)C2=O)cc1`, the TGI with EKVX NSCLC is above 100 µM; in the experiment on BT-549 breast, above 100 µM; in the experiment with OVCAR-4 ovarian it was 82.7 µM; in the experiment with MDA-MB-435, above 100 µM; in the experiment on HL-60(TB) leukemia it was above 100 µM; in the experiment on K-562 leukemia, above 100 µM. Besides, the TGI with SF-268 CNS and in the experiment with CAKI-1 renal was above 100 µM in each case.
`CC1(C)C=C(/C=C2/N(S(=O)(=O)C(F)(F)F)C(/C=C3/N(S(=O)(=O)C(F)(F)F)C(C)(C#N)CC3(C)C)=CC2(C)C)N=C1/C=C1/CC(C)(C)C(=O)N1` (stereo unspecified): the TGI is 81.2 µM in the experiment with EKVX NSCLC; above 100 µM in the experiment on BT-549 breast; above 100 µM with OVCAR-4 ovarian; above 100 µM with MDA-MB-435; 21.2 µM in the experiment with HL-60(TB) leukemia; above 100 µM in the experiment on K-562 leukemia. The figures for the TGI in the experiment with SF-268 CNS, in the experiment with NCI-H23 lung and in the experiment with CAKI-1 renal were 36 µM, above 100 µM and above 100 µM, respectively.
